Measurements reported in the NIST ThermoML archive (doi:10.1016/j.jct.2011.06.020).

Assay: refractive index (Na D-line) (dimensionless); xn = mol fraction of the nth substance listed
Settings: 101 kPa, Liquid, Standard Abbe refractometry

CN1CCNCC1 [N-methylpiperazine] + O
refractive index
Settings	293.15 K	298.15 K	303.15 K	308.15 K	313.15 K	323.15 K	328.15 K	333.15 K
x1 = 0.0521	1.374	1.373	1.373	1.372	1.371	1.369	1.368	1.366
x1 = 0.0725	1.389	1.388	1.387	1.386	1.384	1.382	1.381	1.379
x1 = 0.1039	1.406	1.405	1.403	1.402	1.401	1.397	1.396	1.396
x1 = 0.2091	1.44	1.438	1.436	1.434	1.432	1.428	1.427	1.425
x1 = 0.3101	1.453	1.451	1.449	1.447	1.445	1.441	1.439	1.437
x1 = 0.4096	1.459	1.457	1.455	1.453	1.451	1.446	1.444	1.442
x1 = 0.5109	1.462	1.46	1.458	1.456	1.454	1.449	1.447	1.445
x1 = 0.608	1.464	1.462	1.46	1.457	1.455	1.451	1.448	1.446
x1 = 0.7065	1.465	1.463	1.461	1.458	1.456	1.451	1.449	1.447
x1 = 0.8069	1.466	1.463	1.461	1.459	1.456	1.452	1.449	1.447
x1 = 0.8819	1.466	1.464	1.461	1.459	1.457	1.452	1.449	1.447
x1 = 1	1.466	1.464	1.461	1.459	1.457	1.452	1.449	1.447
